Measured values taken from PMC8026785, “The pharmacokinetics of [^18F]UCB-H revisited in the healthy non-human primate brain” (EJNMMI Research, 2021).
Where “and” joins values, the source holds several entries; their conditions need not be identical. Equal values may be shown once.

Target: T1, SV2A (Macaca fascicularis, UniProt Q4R4X3)
T1 construct: The current study evaluates [^18F]UCB-H pharmacokinetics in healthy NHPs; from tissue; host or cells: brain of living healthy cynomolgus monkeys (in vivo PET)
T1 sequence (Q4R4X3 whole entry): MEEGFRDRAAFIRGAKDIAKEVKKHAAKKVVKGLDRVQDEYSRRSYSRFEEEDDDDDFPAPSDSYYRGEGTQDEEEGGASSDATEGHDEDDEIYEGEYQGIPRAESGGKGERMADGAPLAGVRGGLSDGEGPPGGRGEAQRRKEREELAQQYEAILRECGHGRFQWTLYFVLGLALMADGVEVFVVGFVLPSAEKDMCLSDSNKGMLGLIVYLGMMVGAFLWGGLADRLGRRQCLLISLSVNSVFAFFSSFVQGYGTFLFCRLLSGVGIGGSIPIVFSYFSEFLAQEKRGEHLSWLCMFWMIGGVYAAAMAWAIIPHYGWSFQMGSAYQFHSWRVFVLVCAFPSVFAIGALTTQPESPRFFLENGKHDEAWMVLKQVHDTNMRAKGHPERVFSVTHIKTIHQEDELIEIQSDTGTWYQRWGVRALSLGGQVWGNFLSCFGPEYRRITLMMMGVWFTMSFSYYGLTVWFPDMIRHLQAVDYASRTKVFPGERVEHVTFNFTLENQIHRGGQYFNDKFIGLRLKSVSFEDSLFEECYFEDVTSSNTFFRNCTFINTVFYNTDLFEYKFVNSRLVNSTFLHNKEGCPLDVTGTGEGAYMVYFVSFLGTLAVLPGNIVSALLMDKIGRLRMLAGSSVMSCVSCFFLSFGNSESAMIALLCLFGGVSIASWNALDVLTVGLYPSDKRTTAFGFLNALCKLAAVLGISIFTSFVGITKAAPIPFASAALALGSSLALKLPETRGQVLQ
Experiment: Brain PET kinetic modelling (1TCM, 2TCM, 2TCM-c, Logan), test-retest
Assay type: in vivo, cynomolgus monkeys (Macaca fascicularis)
Experimental: All four non-human primates (NHP) underwent a 2-h (2 h) test and retest PET scan; two NHP underwent an additional 4-h (4 h) retest PET scan. Three NHP underwent one 4-h (4 h) displacement PET scan. Arterial blood sampling was performed during test and retest scans with PET imaging spaced by at least 3 weeks between each scan. To this end, the femoral artery opposite to the saphenous vein used for radioligand injection was cannulated. For the 2-h (2 h) scans, we collected in total 28 blood samples of 1 mL: 16 samples during the first 5 min followed by […] every 5 min and […] every 10 min. For the 4 h scans, we collected an additional 6 samples every 20 min during the last two hours (34 samples in total). Larger samples (2 – 3 mL) were collected at 5, 15, 30, 60, 90, 120 min (2 h) and at 180, 240 min (4 h) for metabolite analysis. Displacement of [^18F]UCB-H was done by intravenous (IV) administration 90 min after [^18F]UCB-H injection of a bolus of 30 mg/kg LEV, or of 80 µg/kg (≈250 nmol/kg) or 5 mg/kg (≈15 µmol/kg) of cold [^19F]-UCB-H. Full experimental design of all NHP is outlined in Additional file 1: Table 1.
PET imaging was performed on the microPET FOCUS220 (Siemens) under standard anesthesia and monitoring procedures. Data acquisition started with the IV bolus injection of [^18F]UCB-H (32.9 ± 1.0 MBq/kg, 0.35 ± 0.07 µg/kg). Dynamic PET images were reconstructed using standard OSEM-2D algorithms while correcting for radioactive decay, scatter, attenuation and detectors inhomogeneity, which were measured prior to PET scanning using respectively ^57Co and ^68Ge external sources.
PET image analysis was performed using PMOD software version 3.8 (PMOD Technologies Ltd., Zurich, Suisse). After individual co-registration of PET-MR images, a cynomolgus atlas published by Ballanger and coworkers was normalized to PET images to extract time activity curves in different brain regions. Volumes of interest (VOI) were cerebral white matter (16.7 cm^3), striatum (0.24 cm^3), thalamus (0.89 cm^3), cerebellum (3.83 cm^3), frontal—(2.50 cm^3), parietal—(5.35 cm^3), and temporal (8.22 cm^3) cortex, and whole brain (72.2 cm^3) as a composite region of all regions in the atlas. [^18F]UCB-H pharmacokinetics were evaluated by analyzing the time activity curves of the test- and retest scans using 1- and 2-tissue compartment models (unconstrained and constrained with global K1/k2 coupled fit across all regions, further referred to as 2TCM and 2TCM-c), and Logan graphical analysis with a fixed t* at 60 min [33] using the arterial plasma input function corrected for radio-metabolites to derive the volume of distribution in each region. Percentage standard error (%SE) was estimated from the theoretical parameter covariance matrix. Only reliable estimates (%SE less than 25%) were included in the current analyses. For the three drug studies, percent displacement of the total activity in the whole brain was estimated relative to an average baseline constructed from the two 4 h baseline studies. Briefly, Standardized Uptake Value (SUV) time activity curves (TACs) were calculated for the two baseline and the three displacement studies. Then, each curve was normalized to the SUV at t = 90 min, corresponding to the timeframe immediately before the administration of the drugs in the displacement studies. Baseline curves were averaged and the percent displacement of total activity was calculated as (baseline-displacement)/baseline at a given time post drug administration (see “Results”).
Statistical analysis was performed using R software (version 3.3.1.). Plasma, intact parent fraction and time activity curves were statistically compared between subjects using a one-factor variance analysis. Absolute Test–Retest variability (aTRV) of PET quantification parameters was calculated as ABS(test—retest) / AVERAGE(test, retest). […]

[1] = Temporal Cortex, Retest, individual NHP
[2] = Temporal Cortex, Test, individual NHP
[3] = Thalamus, Retest, individual NHP

VT (Logan (t* = 60)) (Striatum, Retest, mean): 15.7 mL/cm^3
k3/k4 (BPND) (2TCM-c) (Striatum, Retest, mean): 1.12
VT (2TCM) (Striatum, Test, individual NHP): 13.09 ml/cm^3 and 17.60 ml/cm^3
k3/k4 (2TCM) (Striatum, Test, individual NHP): 0.69
k3/k4 (2TCM-c) (Striatum, Test, individual NHP): 1.74 and 1.24 and 0.50
VT (1TCM) (Striatum, Test, mean): 14.2 mL/cm^3
VT (2TCM) (Striatum, Test, mean): 15.3 mL/cm^3
VT (2TCM-c) (Striatum, Test, mean): 15.0 mL/cm^3
VT (Logan (t* = 60)) (Striatum, Test, mean): 15.8 mL/cm^3
k3/k4 (BPND) (2TCM-c) (Striatum, Test, mean): 1.16
VT (2TCM) [1]: 13.97 ml/cm^3 and 13.95 ml/cm^3
k3/k4 (2TCM-c) [1]: 0.60 and 2.03 and 0.29
VT (2TCM) [2]: 12.30 ml/cm^3 and 15.50 ml/cm^3
k3/k4 (2TCM) [2]: 0.72
k3/k4 (2TCM-c) [2]: 1.00 and 1.58 and 0.41
ICC of Logan (t* = 60) VT (Temporal cortex): 0.61
aTRV of 2TCM-c VT (Temporal cortex): 25%
aTRV of Logan (t* = 60) VT (Temporal cortex): 13%
VT (1TCM) (Temporal cortex, Retest, mean): 13.0 mL/cm^3
VT (2TCM) (Temporal cortex, Retest, mean): 14.0 mL/cm^3
VT (2TCM-c) (Temporal cortex, Retest, mean): 13.1 mL/cm^3
VT (Logan (t* = 60)) (Temporal cortex, Retest, mean): 13.9 mL/cm^3
k3/k4 (BPND) (2TCM-c) (Temporal cortex, Retest, mean): 0.97
VT (1TCM) (Temporal cortex, Test, mean): 12.9 mL/cm^3
VT (2TCM) (Temporal cortex, Test, mean): 13.9 mL/cm^3
VT (2TCM-c) (Temporal cortex, Test, mean): 14.8 mL/cm^3
VT (Logan (t* = 60)) (Temporal cortex, Test, mean): 14.1 mL/cm^3
k3/k4 (BPND) (2TCM-c) (Temporal cortex, Test, mean): 1.00
ICC of Logan (t* = 60) VT (Thalamus): 0.61
aTRV of 2TCM-c VT (Thalamus): 18%
aTRV of Logan (t* = 60) VT (Thalamus): 12%
VT (2TCM) [3]: 11.88 ml/cm^3 and 14.03 ml/cm^3
SMILES: O=C1C[C@H](c2cc(F)c(F)c(F)c2)CN1Cc1ccncc1[18F] [[^18F]UCB-H]
K1 (2TCM) (Striatum, Test, individual NHP): 0.24 ml/cm^3 /min and 0.25 ml/cm^3 /min and 0.51 ml/cm^3 /min and 0.63 ml/cm^3 /min
K1 (2TCM-c) (Striatum, Test, individual NHP): 0.24 ml/cm^3 /min and 0.26 ml/cm^3 /min and 0.53 ml/cm^3 /min and 0.63 ml/cm^3 /min
K1/k2 (2TCM) (Striatum, Test, individual NHP): 10.32 ml/cm^3 and 7.75 ml/cm^3 and 12.01 ml/cm^3 and 15.06 ml/cm^3
K1/k2 (2TCM-c) (Striatum, Test, individual NHP): 7.86 ml/cm^3 and 4.35 ml/cm^3 and 8.22 ml/cm^3 and 10.99 ml/cm^3
VT (1TCM) (Striatum, Test, individual NHP): 12.87 ml/cm^3 and 11.31 ml/cm^3 and 16.41 ml/cm^3 and 16.40 ml/cm^3
VT (2TCM-c) (Striatum, Test, individual NHP): 14.78 ml/cm^3 and 11.92 ml/cm^3 and 16.73 ml/cm^3 and 16.50 ml/cm^3
VT (Logan) (Striatum, Test, individual NHP): 15.21 ml/cm3 and 12.85 ml/cm3 and 17.23 ml/cm3 and 17.97 ml/cm3
K1 (2TCM) [1]: 0.31 ml/cm^3 /min and 0.45 ml/cm^3 /min and 0.29 ml/cm^3 /min and 0.36 ml/cm^3 /min
K1 (2TCM-c) [1]: 0.32 ml/cm^3 /min and 0.48 ml/cm^3 /min and 0.30 ml/cm^3 /min and 0.36 ml/cm^3 /min
K1/k2 (2TCM) [1]: 11.50 ml/cm^3 and 9.63 ml/cm^3 and 11.78 ml/cm^3
K1/k2 (2TCM-c) [1]: 7.25 ml/cm^3 and 4.64 ml/cm^3 and 9.07 ml/cm^3 and 10.70 ml/cm^3
VT (1TCM) [1]: 11.57 ml/cm^3 and 13.96 ml/cm^3 and 13.50 ml/cm^3 and 13.13 ml/cm^3
VT (2TCM-c) [1]: 11.57 ml/cm^3 and 14.06 ml/cm^3 and 13.53 ml/cm^3
VT (Logan) [1]: 11.91 ml/cm3 and 13.90 ml/cm3 and 16.34 ml/cm3 and 13.54 ml/cm3
K1 (2TCM) [2]: 0.17 ml/cm^3 /min and 0.23 ml/cm^3 /min and 0.37 ml/cm^3 /min and 0.44 ml/cm^3 /min
K1 (2TCM-c) [2]: 0.17 ml/cm^3 /min and 0.24 ml/cm^3 /min and 0.37 ml/cm^3 /min and 0.44 ml/cm^3 /min
K1/k2 (2TCM) [2]: 11.10 ml/cm^3 and 7.16 ml/cm^3 and 8.97 ml/cm^3 and 12.30 ml/cm^3
K1/k2 (2TCM-c) [2]: 7.86 ml/cm^3 and 4.35 ml/cm^3 and 8.22 ml/cm^3 and 10.99 ml/cm^3
VT (1TCM) [2]: 12.66 ml/cm^3 and 10.58 ml/cm^3 and 14.25 ml/cm^3 and 13.95 ml/cm^3
VT (2TCM-c) [2]: 17.46 ml/cm^3 and 11.23 ml/cm^3 and 14.95 ml/cm^3 and 15.47 ml/cm^3
VT (Logan) [2]: 14.13 ml/cm3 and 11.99 ml/cm3 and 15.12 ml/cm3 and 15.35 ml/cm3
K1 (2TCM) [3]: 0.36 ml/cm^3 /min and 0.51 ml/cm^3 /min and 0.34 ml/cm^3 /min and 0.38 ml/cm^3 /min
K1 (2TCM-c) [3]: 0.37 ml/cm^3 /min and 0.54 ml/cm^3 /min and 0.36 ml/cm^3 /min and 0.38 ml/cm^3 /min
K1/k2 (2TCM) [3]: 12.79 ml/cm^3 and 11.34 ml/cm^3 and 12.88 ml/cm^3
K1/k2 (2TCM-c) [3]: 7.25 ml/cm^3 and 4.64 ml/cm^3 and 9.07 ml/cm^3 and 10.70 ml/cm^3
VT (1TCM) [3]: 11.85 ml/cm^3 and 13.85 ml/cm^3 and 14.73 ml/cm^3 and 13.28 ml/cm^3
VT (2TCM-c) [3]: 11.88 ml/cm^3 and 13.92 ml/cm^3 and 17.03 ml/cm^3 and 13.98 ml/cm^3
VT (Logan) [3]: 12.16 ml/cm3 and 14.10 ml/cm3 and 17.41 ml/cm3 and 13.62 ml/cm3
